From patent US20070092474A1, “Carnitine salt, preliposome which contains it and dermocosmetic formula for topical use based upon said carnitine salt” (priority 2003, published 2007)
Values joined by “and” are separate entries in the source; they are usually repeats but may differ in a detail not shown here. Identical values can stand only once.

System: skin blemishes caused by cellulite and localised adiposity
Experiment: Plicometry: skin plica thickness measured with a plicometer, dermatological test of the cosmetic gel
Type: in vivo, female volunteers
Settings: same tests repeated with the single reactant; site and time point of each value not given
Method: A dermatological test was carried out on 25 female volunteers between 18 and 65 years of age, with the backing of the Department of Physiological and Pharmacological Sciences of the university of Pavia. The investigation aimed to check the modification of three anatomical-physiological parameters, qualifying the unaesthetic-functional aspect connected to the manifestation of so-called cellulite and subcutaneous hypertriglyceridaemia: measurement of the skin folds, measurement of the circumference of the thighs, thermographic skin measurement.
The test stretched out over 60 days with the continual daily application of the aforementioned preparation of cosmetic gel. The measurements were carried out after 15, 30 and 60 days. The detail of the test protocol and of the results obtained is shown hereafter.
25 female volunteers aged between 18 and 65, with the presence of skin blemishes caused by cellulite and localised adiposity, were selected according to the following criteria: good general state of health, absence of skin pathologies, not being under medication, commitment not to vary the normal daily routine, no medical history of atopy.
The samples were tested by uniformly applying them on “Glute SX Glute DJ (Femoris Posto SX Femoris Posto DX Femoris Ant. SX Femoris Ant. DX” every day at least once per day for the entire duration of the test.
At the time of inclusion in the study and during the subsequent checks after 15 days (T15), after 30 days (T30) and after 60 days (T60) of treatment the following instrumental measurements were taken: • plicometry (through a plicometer) • thigh circumference (through a measuring tape broken into millimetres) • contact thermography (through liquid crystal thermographic plates).
In particular, the plicometer used in the test constitutes the suitable instrument for measuring the skin plica thickness. Skin plicometry provides numerical data of particular use when the panniculopathic process of the cellulite is associated with localised adiposity.

C[N+](C)(C)CC(O)CC(=O)O (stereo not shown) [Carnitine (II), 3-carboxy-2-hydroxy-propyl trimethyl amine, reference compound]
PLICOMETRY SX, average values: 25.7 and 23.7
